The target in assay [1] is EGFR L858R (Homo sapiens (Human), UniProt P00533, L858R). Description: Biochemical EGFR inhibition assay, EGFR L858R. To be noted: Caliper mobility shift; 1.0 mM ATP or ATP Km; read-out: Enz EGFR_L858R IC50. Here is the method:
(§1) Reactions proceeded until between 10% to 20% total peptides were phosphorylated at room temperature (25° C.) and were terminated with 35 mM 2,2′,2″,2″-(ethane-1,2-diyldinitrilo)tetraacetic acid (EDTA). Product was detected using the Caliper mobility shift detection method where the phosphorylated peptide (product) and substrate were electrophoretically separated and measured. Percent activity was plotted against log concentration of compound and points to generate an apparent IC50.

Assay [2] concerns the target EGFR (d746-750) (Homo sapiens (Human), UniProt P00533, DEL746-750). Description: Biochemical EGFR inhibition assay, EGFR (d746-750). The conditions noted are these: Caliper mobility shift; 1.0 mM ATP or ATP Km; read-out: Enz EGFR_Exon19-del746-750 IC50. Here is the method: as §1
In assay [3] the target is pEGFR (Tyr1068) in PC-9 cells (Ex19Del) (Homo sapiens (Human), UniProt P00533, DEL746-750). The assay is described as follows: PC-9 pEGFR AlphaLISA assay. The class given is cell-based. To be noted: 4 hours incubation, p-EGFR (Tyr1068) AlphaLISA, read-out: Ext pEGFR_PC-9 Ex19Del IC50. Here is the method: PC-9/A431 pEGFR AlphaLISA Assays
Chain of pEGFR (Tyr1068) in PC-9 cells (Ex19Del) (P00533 other isoform, or with tags, fused parts or gaps del 746-750): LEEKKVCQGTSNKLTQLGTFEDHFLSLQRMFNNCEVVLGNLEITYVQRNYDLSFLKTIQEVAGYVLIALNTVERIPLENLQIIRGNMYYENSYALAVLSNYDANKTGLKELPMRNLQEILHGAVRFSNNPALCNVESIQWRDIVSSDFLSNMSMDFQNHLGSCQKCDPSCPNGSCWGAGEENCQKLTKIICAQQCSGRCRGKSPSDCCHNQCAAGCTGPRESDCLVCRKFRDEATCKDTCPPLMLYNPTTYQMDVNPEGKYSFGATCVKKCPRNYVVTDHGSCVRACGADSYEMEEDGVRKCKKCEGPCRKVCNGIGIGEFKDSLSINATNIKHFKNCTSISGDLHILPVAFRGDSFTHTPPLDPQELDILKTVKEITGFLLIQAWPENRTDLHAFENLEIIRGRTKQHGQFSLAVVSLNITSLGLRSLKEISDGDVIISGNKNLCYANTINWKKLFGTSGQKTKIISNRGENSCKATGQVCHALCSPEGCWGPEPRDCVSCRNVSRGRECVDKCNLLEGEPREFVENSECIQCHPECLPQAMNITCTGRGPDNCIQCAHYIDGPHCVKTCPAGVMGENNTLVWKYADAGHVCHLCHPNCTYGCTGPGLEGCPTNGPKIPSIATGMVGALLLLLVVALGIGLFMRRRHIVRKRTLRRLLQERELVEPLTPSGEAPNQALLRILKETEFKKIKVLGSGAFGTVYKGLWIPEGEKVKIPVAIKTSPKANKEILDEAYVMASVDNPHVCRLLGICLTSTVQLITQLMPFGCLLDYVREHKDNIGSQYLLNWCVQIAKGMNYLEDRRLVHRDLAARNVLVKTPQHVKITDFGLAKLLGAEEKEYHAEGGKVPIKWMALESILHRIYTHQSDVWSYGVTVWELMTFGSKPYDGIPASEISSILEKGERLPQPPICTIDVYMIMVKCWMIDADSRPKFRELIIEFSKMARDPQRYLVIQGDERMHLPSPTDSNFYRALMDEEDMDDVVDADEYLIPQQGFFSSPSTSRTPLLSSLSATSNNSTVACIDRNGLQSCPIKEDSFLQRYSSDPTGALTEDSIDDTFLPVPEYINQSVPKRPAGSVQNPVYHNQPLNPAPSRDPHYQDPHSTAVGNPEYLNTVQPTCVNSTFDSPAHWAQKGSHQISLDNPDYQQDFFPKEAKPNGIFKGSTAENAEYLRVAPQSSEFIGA
Inhibitory effects of compounds were evaluated in cellular assays that measure level of intracellular phosphorylation of EGFR in PC-9 (ECACC, #90071810, Milipore/Sigma) and A431 cell lines (ATCC, CRL-1555) using AlphaLISA sureFire ultra p-EGFR (Tyr1068) assay kit (PerkinElmer, ALSU-PEGFR-A50K). PC-9 cells were seeded at 3.125×10^5 cells/ml in 40 μL phenol-free DMEM supplemented with 10% FBS per well of a 384 well plate (Corning, 3764), while A431 were seeded at 3.125×10^5 cells/ml in 40 μL in phenol-free DMEM with 0.5% FBS. Cells were allowed to adhere overnight at 37° C./5% CO2. On the next day, compounds were transferred at 4-fold, 10-point serial dilution from compound source plate to cell plates using liquid handler Echo550 and were incubated at 37° C./5% CO2 for 4 hours. A431 cells were stimulated prior harvesting for 10 min with EGF at final concentration of 30 ng/ml in the incubator. Medium was removed from the plates and cells were lysed with 10 μL of 1× AlphaLISA lysis buffer (supplemented with 1× protease/phosphatase inhibitor cocktail) followed by shaking at 600 rpm for 30 minutes at room temperature. Lysates were transferred to Optiplate (Apricot designs) and 5 μl of 1× acceptor bead mix (prepared just before use) was added to each well followed by incubation at room temperature for 1.5-2 h in dark. Then 5 μL of freshly-made donor bead mix is added to each well under subdued lighting or green filters, was mixed well on the shaker and the plate was sealed and left for an overnight incubation at room temperature in dark. On the next day, the plate was read the Envision using standard AlphaLisa settings. Percent of pEGFR inhibition was plotted against log concentration of compounds to generate IC50 values.
In general terms: In Alpha technology, singlet oxygen from a donor bead excites a nearby acceptor bead.

Where a name gives a salt, the structure may show the parent alone.

We go through 14 compounds from patent publication US20250236608A1, “EGFR INHIBITORS” (Blueprint Medicines Corporation, priority 2022, published 2025).

Chain of EGFR (d746-750) (P00533 other isoform, or with tags, fused parts or gaps del 1-694/del 746-750 limits assumed): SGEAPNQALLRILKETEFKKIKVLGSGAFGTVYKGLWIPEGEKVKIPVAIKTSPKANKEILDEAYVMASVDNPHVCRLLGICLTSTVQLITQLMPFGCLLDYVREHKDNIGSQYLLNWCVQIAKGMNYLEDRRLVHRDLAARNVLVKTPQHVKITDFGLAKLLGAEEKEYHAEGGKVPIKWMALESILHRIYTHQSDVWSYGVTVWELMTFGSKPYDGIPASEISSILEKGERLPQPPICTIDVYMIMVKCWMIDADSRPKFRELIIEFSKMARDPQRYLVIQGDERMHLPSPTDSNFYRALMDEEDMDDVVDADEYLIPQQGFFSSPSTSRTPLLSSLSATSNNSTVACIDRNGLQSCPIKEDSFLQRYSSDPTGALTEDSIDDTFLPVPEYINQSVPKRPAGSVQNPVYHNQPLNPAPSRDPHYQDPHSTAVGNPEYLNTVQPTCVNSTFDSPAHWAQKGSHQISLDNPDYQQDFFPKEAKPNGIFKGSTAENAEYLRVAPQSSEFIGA
Chain of EGFR L858R (P00533 25-1210 L858R): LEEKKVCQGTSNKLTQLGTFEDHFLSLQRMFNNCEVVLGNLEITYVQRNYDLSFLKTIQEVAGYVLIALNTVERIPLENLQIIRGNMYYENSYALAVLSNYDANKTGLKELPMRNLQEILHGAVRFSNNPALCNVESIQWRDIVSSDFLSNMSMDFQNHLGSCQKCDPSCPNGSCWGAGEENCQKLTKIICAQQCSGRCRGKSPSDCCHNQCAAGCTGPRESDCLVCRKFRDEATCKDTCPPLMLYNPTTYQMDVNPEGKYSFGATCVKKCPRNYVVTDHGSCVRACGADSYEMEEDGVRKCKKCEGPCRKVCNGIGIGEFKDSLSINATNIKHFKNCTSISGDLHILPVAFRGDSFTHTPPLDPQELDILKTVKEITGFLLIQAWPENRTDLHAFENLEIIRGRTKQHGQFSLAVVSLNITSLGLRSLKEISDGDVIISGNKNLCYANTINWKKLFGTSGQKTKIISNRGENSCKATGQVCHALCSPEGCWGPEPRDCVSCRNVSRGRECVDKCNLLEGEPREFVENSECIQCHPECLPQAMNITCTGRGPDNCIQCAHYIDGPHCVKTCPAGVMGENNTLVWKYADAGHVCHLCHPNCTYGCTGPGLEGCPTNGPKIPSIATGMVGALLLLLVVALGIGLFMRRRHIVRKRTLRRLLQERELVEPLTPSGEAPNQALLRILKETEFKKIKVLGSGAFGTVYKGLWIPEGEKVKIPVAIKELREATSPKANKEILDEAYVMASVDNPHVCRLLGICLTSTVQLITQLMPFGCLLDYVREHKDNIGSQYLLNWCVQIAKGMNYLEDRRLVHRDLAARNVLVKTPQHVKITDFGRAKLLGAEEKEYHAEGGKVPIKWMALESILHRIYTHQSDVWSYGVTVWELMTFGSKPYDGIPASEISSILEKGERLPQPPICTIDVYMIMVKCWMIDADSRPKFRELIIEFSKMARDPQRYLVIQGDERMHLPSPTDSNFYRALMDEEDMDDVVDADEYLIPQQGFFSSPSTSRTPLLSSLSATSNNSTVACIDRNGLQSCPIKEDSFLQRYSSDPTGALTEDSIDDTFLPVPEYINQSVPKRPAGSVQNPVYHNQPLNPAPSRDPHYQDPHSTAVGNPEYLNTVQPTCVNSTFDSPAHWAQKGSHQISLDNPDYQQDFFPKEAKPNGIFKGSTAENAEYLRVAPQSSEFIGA

The term IC50 denotes the concentration needed to halve the response being measured. Regarding `COc1cc2ncnc(-c3cn(C)nc3-c3ccccc3)c2cc1OC(=O)N1CCO[C@@H]2C[C@@H]21` (racemic) [Example 83, Cis-rac-7-methoxy-4-(1-methyl-3-phenyl-1H-pyrazol-4-yl)quinazolin-6-yl (1R,6S)-2-oxa-5-azabicyclo[4.1.0]heptane-5-carboxylate], the IC50 stood at 3 nM in assay [1], 2.2 nM in assay [2] and 4.9 nM in assay [3].
The like results for `COc1cc2ncnc(-c3cn(C)nc3-c3ccccc3)c2cc1OC(=O)N1C[C@@H](C)OC[C@@H]1C` (racemic) [Example 91, trans-rac-7-methoxy-4-(1-methyl-3-phenyl-1H-pyrazol-4-yl)quinazolin-6-yl (2R,5S)-2,5-dimethylmorpholine-4-carboxylate or cis-rac-7-methoxy-4-(1-methyl-3-phenyl-1H-pyrazol-4-yl)quinazolin-6-yl (2S,5S)-2,5-dimethylmorpholine-4-carboxylate] were, in that order, 9.3 nM, 5.6 nM and 9.5 nM.
On the same counts, the results for `COc1cc2ncnc(-c3cn(C)nc3-c3ccccc3)c2cc1OC(=O)N1C[C@H](C)OC[C@@H]1C` (racemic) [Example 92, cis-rac-7-methoxy-4-(1-methyl-3-phenyl-1H-pyrazol-4-yl)quinazolin-6-yl (2R,5S)-2,5-dimethylmorpholine-4-carboxylate or trans-rac-7-methoxy-4-(1-methyl-3-phenyl-1H-pyrazol-4-yl)quinazolin-6-yl (2S,5S)-2,5-dimethylmorpholine-4-carboxylate] are 9.3 nM, 3.4 nM and 13.4 nM.
As to `COc1cc2ncnc(-c3cn(C)nc3-c3ccccc3)c2cc1NC(=O)[C@@H]1CCN(C)C[C@H]1F` (racemic) [Example 339, trans-rac-(3R,4R)-3-fluoro-N-(7-methoxy-4-(1-methyl-3-phenyl-1H-pyrazol-4-yl)quinazolin-6-yl)-1-methylpiperidine-4-carboxamide trifluoroacetate], the IC50 worked out at 1.7 nM in assay [1], 1 nM in assay [2] and 0.8 nM in assay [3].
The like results for `COc1cc2ncnc(-c3cn(C)nc3-c3ccccc3)c2nc1O[C@H](C)c1cscn1` (single isomer, unassigned) [Example 49, (R)-4-(1-((7-methoxy-4-(1-methyl-3-phenyl-1H-pyrazol-4-yl)pyrido[3,2-d]pyrimidin-6-yl)oxy)ethyl)thiazole or (S)-4-(1-((7-methoxy-4-(1-methyl-3-phenyl-1H-pyrazol-4-yl)pyrido[3,2-d]pyrimidin-6-yl)oxy)ethyl)thiazole] were, in that order, 1.3 nM, 0.6 nM and 1.2 nM.
The like results for `COc1cc2ncnc(-c3cn(C)nc3-c3ccccc3)c2nc1O[C@@H](C)c1cscn1` (single isomer, unassigned) [Example 50, (S)-4-(1-((7-methoxy-4-(1-methyl-3-phenyl-1H-pyrazol-4-yl)pyrido[3,2-d]pyrimidin-6-yl)oxy)ethyl)thiazole or (R)-4-(1-((7-methoxy-4-(1-methyl-3-phenyl-1H-pyrazol-4-yl)pyrido[3,2-d]pyrimidin-6-yl)oxy)ethyl)thiazole] were, in that order, 0.5 nM, 0.3 nM and 0.3 nM.
On the same counts, the results for `COc1cc2ncnc(-c3cn(C)nc3-c3ccccc3)c2nc1O[C@@H](C)c1nnc(C)s1` (single isomer, unassigned) [Example 51, (S)-2-(1-((7-methoxy-4-(1-methyl-3-phenyl-1H-pyrazol-4-yl)pyrido[3,2-d]pyrimidin-6-yl)oxy)ethyl)-5-methyl-1,3,4-thiadiazole or (R)-2-(1-((7-methoxy-4-(1-methyl-3-phenyl-1H-pyrazol-4-yl)pyrido[3,2-d]pyrimidin-6-yl)oxy)ethyl)-5-methyl-1,3,4-thiadiazole] are 6.9 nM, 5.3 nM and 30.6 nM.
Regarding `COc1cc2ncnc(-c3cn(C)nc3-c3ccccc3)c2nc1O[C@H](C)c1nnc(C)s1` (single isomer, unassigned) [Example 52, (R)-2-(1-((7-methoxy-4-(1-methyl-3-phenyl-1H-pyrazol-4-yl)pyrido[3,2-d]pyrimidin-6-yl)oxy)ethyl)-5-methyl-1,3,4-thiadiazole or (S)-2-(1-((7-methoxy-4-(1-methyl-3-phenyl-1H-pyrazol-4-yl)pyrido[3,2-d]pyrimidin-6-yl)oxy)ethyl)-5-methyl-1,3,4-thiadiazole], the values for the IC50 in assay [1], in assay [2] and in assay [3] were 12.3 nM, 2.7 nM and 6.3 nM, respectively.
On the same counts, the results for `COc1cc2ncnc(-c3cn(C)nc3-c3ccccc3)c2nc1O[C@H](C)c1ncsc1C` (single isomer, unassigned) [Example 53, (R)-4-(1-((7-methoxy-4-(1-methyl-3-phenyl-1H-pyrazol-4-yl)pyrido[3,2-d]pyrimidin-6-yl)oxy)ethyl)-5-methylthiazole or (S)-4-(1-((7-methoxy-4-(1-methyl-3-phenyl-1H-pyrazol-4-yl)pyrido[3,2-d]pyrimidin-6-yl)oxy)ethyl)-5-methylthiazole] are 12.8 nM, 1.1 nM and 2.7 nM.
In the case of `COc1cc2ncnc(-c3cn(C)nc3-c3ccccc3)c2nc1O[C@@H](C)c1ncsc1C` (single isomer, unassigned) [Example 54, (S)-4-(1-((7-methoxy-4-(1-methyl-3-phenyl-1H-pyrazol-4-yl)pyrido[3,2-d]pyrimidin-6-yl)oxy)ethyl)-5-methylthiazole or (R)-4-(1-((7-methoxy-4-(1-methyl-3-phenyl-1H-pyrazol-4-yl)pyrido[3,2-d]pyrimidin-6-yl)oxy)ethyl)-5-methylthiazole], the results for the IC50 in assay [1], in assay [2] and in assay [3] were 10.6 nM, 1 nM and 1.6 nM, respectively.
On the same counts, the results for `COc1cc2ncnc(-c3cn(C)nc3-c3ccccc3)c2cc1OC(=O)N1CCN(C)C[C@H]1C` (single isomer, unassigned) [Example 58, 7-methoxy-4-(1-methyl-3-phenyl-1H-pyrazol-4-yl)quinazolin-6-yl (R)-2,4-dimethylpiperazine-1-carboxylate or 7-methoxy-4-(1-methyl-3-phenyl-1H-pyrazol-4-yl)quinazolin-6-yl(S)-2,4-dimethylpiperazine-1-carboxylate] are 4.5 nM, 2.5 nM and 5.1 nM.
On the same counts, the results for `COc1cc2ncnc(-c3cn(CC(F)F)nc3-c3ccccc3)c2cc1[C@H](C)O` (single isomer, unassigned) [Example 101, (S)-1-(4-(1-(2,2-difluoroethyl)-3-phenyl-1H-pyrazol-4-yl)-7-methoxyquinazolin-6-yl)ethan-1-ol or (R)-1-(4-(1-(2,2-difluoroethyl)-3-phenyl-1H-pyrazol-4-yl)-7-methoxyquinazolin-6-yl)ethan-1-ol] are 3.2 nM, 1.9 nM and 5.7 nM.
Take `COc1cc2ncnc(-c3cn(CC(F)F)nc3-c3ccccc3)c2cc1[C@@H](C)O` (single isomer, unassigned) [Example 102, (R)-1-(4-(1-(2,2-difluoroethyl)-3-phenyl-1H-pyrazol-4-yl)-7-methoxyquinazolin-6-yl)ethan-1-ol or (S)-1-(4-(1-(2,2-difluoroethyl)-3-phenyl-1H-pyrazol-4-yl)-7-methoxyquinazolin-6-yl)ethan-1-ol]: the IC50 stood at 2 nM in assay [1], 1.2 nM in assay [2] and 4.1 nM in assay [3].
On to `CCOc1cc2ncnc(-c3cn(C)nc3-c3ccccc3)c2cc1[C@H](C)O` (single isomer, unassigned) [Example 103, (S)-1-(7-ethoxy-4-(1-methyl-3-phenyl-1H-pyrazol-4-yl)quinazolin-6-yl)ethan-1-ol or (R)-1-(7-ethoxy-4-(1-methyl-3-phenyl-1H-pyrazol-4-yl)quinazolin-6-yl)ethan-1-ol], for which the IC50 is 1.7 nM in assay [1], 0.6 nM in assay [2] and 2.7 nM in assay [3].
